The record followed here is patent publication US12329137B2, “Method of preparing mouse model of herpes” (AJOU UNIVERSITY INDUSTRY-ACADEMIC COOPERATION FOUNDATION, priority 2019, dated 2025).

Common to all, as to assay type: in vivo, ICR mice
The test system of test [1] is herpes simplex virus type 1 (HSV-1). As to the kind of experiment: Prevalence rate of herpes in mice given HSV-1 with hydrocortisone. On the procedure:
(§1) The ear inner conch of a large number of 5-week-old ICR mice bred and reared in SPF (specific pathogen free) conditions was injured by being scratched with an injection needle at a strength sufficient to prevent blood from bleeding out, then the injured site was first inoculated with 20 μL of HSV-1 (herpes simplex virus type 1, F strain) solution (1×10^6 pfu/mL), and the mice were reared for 10 days. Next, the same injured site was secondarily inoculated with the same dose of HSV-1. One time a day for 5 days from the day after the first inoculation had been performed and one time a day for 5 days from the day after the second inoculation had been performed, hydrocortisone was intraperitoneally injected into each mouse at 50 μg/day to 500 μg/day. Thereafter, the faces of the mice were observed, mice having blisters formed around the lips were selected, and these were used as mouse models of herpes (FIG. 1).

Test [2] concerns CD8+ immune-related cells. As to the kind of experiment: Flow cytometry frequency of CD8+ cells in peripheral blood leukocytes. As to conditions: HSV-1 inoculated mice. The protocol:
as §1
(§2) Each mouse model of herpes was prepared by way of the method of Example 1 except that hydrocortisone was administered at about 50 μg/day, 150 μg/day, or 500 μg/day. Thereafter, peripheral blood was collected from each of the mouse models of herpes, peripheral blood leukocytes was isolated and obtained from the collected blood, and the frequencies of immune-related cells (CD4+, CD8+, and DX5+) contained in the peripheral blood leukocytes were measured and comparatively analyzed via flow cytometry (Tables 1 and 2). In this case, mouse models of herpes prepared without administration of hydrocortisone were used as a control group.

Test [3] deals with DX5+ immune-related cells. As to the kind of experiment: Flow cytometry frequency of DX5+ cells in peripheral blood leukocytes. The settings on record: HSV-1 inoculated mice. The protocol: as §1, §2
Background: Flow cytometry measures light scatter and fluorescence of single cells or particles in a stream.

Test [4] relates to CD4+ immune-related cells. As to the kind of experiment: Flow cytometry frequency of CD4+ cells in peripheral blood leukocytes. As to conditions: HSV-1 inoculated mice. The protocol:
as §1, §2

Setting [5] is: hydrocortisone 50 μg/day intraperitoneal.
[6] abbreviates: hydrocortisone 150 μg/day intraperitoneal.
Setting [7] is: hydrocortisone 500 μg/day intraperitoneal.

As to `C[C@]12CCC(=O)C=C1CC[C@@H]1[C@@H]2[C@@H](O)C[C@@]2(C)[C@H]1CC[C@]2(O)C(=O)CO` [Hydrocortisone, hydrocortisone], in test [1] (HSV-1 + hydrocortisone at 150 μg/day in combination), the “Prevalence rate of herpes (symptomatic mice/total mice)” value is on record as 14.7% (14/95). The “prevalence rate of herpes relative to mice administered with HSV-1 singly” value in test [1] (HSV-1 + hydrocortisone at 150 μg/day in combination vs HSV-1 singly) is “about 2.5 times”. Besides, the “expression frequency of CD8+ cells” value is 6.44 ± 2.6% in test [2] (setting [5]), 4.78 ± 1.7% in test [2] (setting [6]) and 4.2 ± 1.7% in test [2] (setting [7]). Further, the results for the “expression frequency of DX5+ cells” value in test [3] (setting [5]), in test [3] (setting [6]) and in test [3] (setting [7]) were 4.4 ± 2.4%, 2.89 ± 1.9% and 2.5 ± 1.9%, respectively. The “expression frequency of CD4+ cells” value in test [4] (setting [5]) is 15.8 ± 8.8%; in test [4] (setting [6]), 12.4 ± 7.8%; in test [4] (setting [7]), 12.3 ± 4.7%.
